Source: publication PMC10051810, “Modification of the Linker Amino Acid in the Cell-Penetrating Peptide NickFect55 Leads to Enhanced pDNA Transfection for In Vivo Applications” (Pharmaceutics, 2023)

Test system: BALB/c mice
Assay: In vivo safety: ALAT and ASAT from blood, body weight
Parameters: species or system mouse
Protocol: For in vivo studies, the pLuc was mixed with the CPP at CR2 in MilliQ water, wherein the dose per animal was 2.5 mg/kg. After 30 min of incubation at room temperature, glucose was added to the complexes to obtain an isotonic solution with a final injection volume of 336 µL, which was immediately injected intravenously via the tail vein.
In vivo safety was evaluated by measuring the alanine aminotransferase and the aspartate aminotransferase levels from the blood of mice injected with nanoparticles formed between NF55 analogues and pDNA. Additionally, the mice were weighed preinjection with the CPP-pDNA complexes and prior to sacrifice. […]
1 – Alanine aminotransferase 2 – Aspartate aminotransferase

[1] = blood of mice injected i.v. with CPP/pDNA nanoparticles, pLuc 2.5 mg/kg, CR2

## CCCCCCCCCCCCCCCCCC(=O)N[C@@H](C)C(=O)NCC(=O)N[C@@H](Cc1ccc(O)cc1)C(=O)N[C@@H](CC(C)C)C(=O)N[C@@H](CC(C)C)C(=O)NCC(=O)NCCC[C@H](N)C(=O)N[C@H](C(=O)N[C@@H](CC(N)=O)C(=O)N[C@@H](CC(C)C)C(=O)N[C@@H](CCCCN)C(=O)N[C@@H](C)C(=O)N[C@@H](CC(C)C)C(=O)N[C@@H](C)C(=O)N[C@@H](C)C(=O)N[C@@H](CC(C)C)C(=O)N[C@@H](C)C(=O)N[C@@H](CCCCN)C(=O)N[C@@H](C)C(=O)N[C@H](C(=O)N[C@@H](CC(C)C)C(N)=O)[C@@H](C)CC)[C@@H](C)CC [NF55]
[1]
  ALAT (alanine aminotransferase): 629
  ASAT (aspartate aminotransferase): 184
Weight of mice before injecting with CPP/pDNA nanoparticles
  Pre-injection weight: 26.96 grams
Weight of mice before sacrificing for ex vivo tissue analysis
  Post-injection weight: 25.35 grams
